Source: US20100003542A1, “Coating of artificial surfaces of medical aids and instruments, and cleaning and/or pretreatment of catheters and other medical aids and instruments” (BAYER SCHERING PHARMA AKTIENGESSELSCHAFT, priority 2006, published 2010)

The compounds below were run on intrinsic blood clotting system (assay: Determination of the inhibition of contact activation: activated partial thromboplastin time (aPTT) in platelet-poor plasma). Settings: concentration of inhibitor causing twofold prolongation of aPTT; platelet-poor citrate plasma from healthy volunteers; 10 min incubation at 37° C.; PTT reagent (kaolin/cephalin).
Parameters: species or system human
Excerpt: The contact activation can be measured by means of a global plasma clotting test, the activated partial thromboplastin time (aPTT), which detects the effect on factors of the intrinsic blood clotting system.
The PTT reagent is a mixture of kaolin suspension, that is “silicates”, which mimic the negatively charged foreign surface, and cephalin, that is phospholipids, which are needed as a surface for the conversion of factor XII into factor XIIa. In the presence of a foreign surface, phospholipid and Ca^2+, factor XII is converted to factor XIIa.
This PTT reagent is added to specially prepared plasma (see examples). The clotting is triggered when the necessary calcium^2+ ions are present, i.e. by addition of a calcium dichloride solution. The time between calcium^2+ addition and the onset of clotting is then measured, and the concentration of inhibitor [in μM] which causes a twofold prolongation of the aPTT is stated.
The contact activation is determined by determination of the partial thromboplastin time. The test principle is as follows: the plasma sample is treated with a mixture of the partial thromboplastin cephalin (phospholipid from rabbit brain) and the surface activator kaolin. The contact activation of the intrinsic clotting system up to fibrin formation is thus set in motion.
For the determination of the partial thromboplastin time, blood from healthy volunteers of both sexes, who had not received any medication affecting clotting within the last ten days, was used. The blood is collected in Monovettes (Sarstedt, Nümbrecht) which contain sodium citrate (1 part citrate+9 parts blood) as anticoagulant. To obtain platelet-poor plasma, the citrate (3.8%) whole blood is centrifuged at 2500 g for 10 min at 4° C. and stored at −20° C. For the determination of the clotting time, aliquots of the platelet-poor plasma (0.1 ml) are incubated with increasing concentrations of test substance or the corresponding solvent for 10 mins at 37° C. Next, the clotting time is determined in accordance with the manufacturer's directions (PTT Reagent®, Roche Diagnostics). For this the procedure is as follows: 0.1 ml of PTT reagent is pipetted into the plasma, and the sample incubated for three minutes at 37° C. The clotting is then triggered in a coagulometer by addition of 0.1 ml of calcium chloride solution and the time to onset of clotting is measured. In this manner, the 2-fold prolongation of the aPTT is determined for selected compounds.
O=C(NC[C@H]1CN(c2ccc(N3CCCC3=O)cc2)C(=O)O1)c1ccc(Cl)s1 [Example 17] was tested, and the “Twofold prolongation of the aPTT” value was 1.8 µM. In the case of O=C(NC[C@H]1CN(c2ccc(N3CCOCC3=O)cc2)C(=O)O1)c1ccc(Cl)s1 [Example 44, 5-chloro-N-({(5S)-2-oxo-3-[4-(3-oxo-4-morpholinyl)phenyl]-1,3-oxazolidin-5-yl}methyl)-2-thiophencarboxamide], the “Twofold prolongation of the aPTT” value was 0.69 µM. In the case of O=C(NC[C@H]1CN(c2ccc(N3CCCC3=O)cc2)C(=O)O1)c1ccc(Br)s1 [Example 56], the “Twofold prolongation of the aPTT” value was 4.3 µM. For O=C(NCC1CN(c2ccc(N3CCOCC3=O)c(F)c2)C(=O)O1)c1ccc(Cl)s1 (centres unmarked) [Example 95], the “Twofold prolongation of the aPTT” value was 0.51 µM. In the case of O=C(NCC1CN(c2ccc(N3CCCC3=O)c(C(F)(F)F)c2)C(=O)O1)c1ccc(Cl)s1 (centres unmarked) [Example 112], the “Twofold prolongation of the aPTT” value was 1.6 µM. In the case of O=C(NCC1CN(c2ccc(N3CCOCC3=O)c(Cl)c2)C(=O)O1)c1ccc(Cl)s1 (centres unmarked) [Example 113], the “Twofold prolongation of the aPTT” value was 0.55 µM. In the case of O=C(NCC1CN(c2ccc(N3CCOCC3=O)c(C(F)(F)F)c2)C(=O)O1)c1ccc(Cl)s1 (centres unmarked) [Example 114], the “Twofold prolongation of the aPTT” value was 2.2 µM. In the case of Cc1cc(N2CC(CNC(=O)c3ccc(Cl)s3)OC2=O)ccc1N1CCOCC1=O (centres unmarked) [Example 115], the “Twofold prolongation of the aPTT” value was 1.34 µM. In the case of Nc1cc(N2CC(CNC(=O)c3ccc(Cl)s3)OC2=O)ccc1N1CCOCC1=O (centres unmarked) [Example 123], the “Twofold prolongation of the aPTT” value was 1.22 µM. O=C(NC[C@H]1CN(c2ccc(N3CCOCC3=O)c(F)c2)C(=O)O1)c1ccc(Cl)s1 [Example 130a] was tested, and the “Twofold prolongation of the aPTT” value was 0.4 µM. With O=C(NC[C@H]1CN(c2ccc(N3CCCCC3=O)cc2)C(=O)O1)c1ccc(Cl)s1 [Example 162] the “Twofold prolongation of the aPTT” value was 2.5 µM.
